The values that follow come from US9139574B2, “Tumor targeted drug combretastatin A4 derivative” (Nanjing Sanhome Pharmaceutical Co., Ltd., priority 2011, dated 2015).

One data set deals with HCT-116. Kind of data set: MTT assay of anti-tumor activity, HCT-116. It counts as cell-based. The settings on record: HCT-116 cells. As to the method:
(§1) The cells were digested and counted. The cell suspension was prepared in a concentration of 5×10^4 cells/ml. 100 μL of the cell suspension per well was added into 96-well plates (5×10^3 cells per well). The 96-well plates were placed in a 5% CO2 incubator at 37° C. for 24 hours. The drugs were diluted with the complete medium to the desired concentrations. 100 μL of the corresponding drug-containing medium was added into each well. Negative control group, vehicle control group and positive control group were set. The 96-well plates were placed in 5% CO2 incubator at 37° C. for 72 hours. The 96-well plates were subjected to a MTT assay, and measured OD value at λ=490 nm. The measurement procedure comprises adding 20 μL MTT (5 mg/ml) for each well, incubating for 4 hours in an incubator, discarding the medium, dissolving by adding 150 μL DMSO into each well, mixing uniformly by rocking gently for 10 minutes on a shaker, reading OD value of each well in a microplate reader at λ=490 nm. The inhibition rate was calculated, the results were recorded, and the anti-tumor activity was assessed.

Another data set relates to K562. Kind of data set: MTT assay of anti-tumor activity, K562. The settings on record: Homo sapiens, K562 cells. Type of data set: cell-based. As to the method: as §1
Background: Tetrazolium assays rely on reduction of a dye to a coloured formazan, in cell work by metabolically active cells.

In another data set the test system is DU-145. Kind of data set: MTT assay of anti-tumor activity, DU-145. Type of data set: cell-based. The settings on record: Homo sapiens, DU-145 cells. The protocol: as §1
The next data set has as its system NCI-H460. Description: MTT assay of anti-tumor activity, NCI-H460. It counts as cell-based. The settings on record: Homo sapiens, NCI-H460 cells. The protocol:
as §1

The subject of a further data set is tubulin. Description: Inhibitory activity on tubulin polymerization (kit BK011P, Cytoskeleton). It counts as biochemical. Conditions: 37° C., 60 minutes, fluorescence, Vmax. The protocol:
The compounds were formulated into six different concentrations (0.03, 0.3, 0.9, 3, 9, 30 μM). The tubulin polymerization assay kit (Cat. # BK011P, Cytoskeleton) was used for testing. The samples were incubated at 37° C. for 60 minutes, and then fluorescence was collected using Gemini EM Fluorescence Microplate Reader collected at 410-460 nm. Vmax was calculated using SOFTMAX® PRO microplate data acquisition & analysis software. The tubulin inhibition (IC50) of the compound was calculated using GRAPHPAD PRISM® v5.01 graphing and statistics software.

Another data set has as its system MCF-7. Description: MTT assay of anti-tumor activity, MCF-7. It counts as cell-based. The settings on record: Homo sapiens. As to the method: as §1
A short description of data set [1]: Pharmacokinetics of Compound C128 liposome in rats. It counts as in vivo. Conditions: C128 liposomes, 10 mg/kg tail vein injection, plasma, non-compartmental; for Vd: male, SD, 10 mg/kg. The protocol:
C128 liposomes: (The liposome was prepared according to the conventional method in the pharmaceutical field, particle size 62.6 nm, polydispersity 0.532).
SD male rats, with average weight of 200 g.
Chromatographic conditions: LC-20A high performance liquid chromatography, SPD-20A variable wavelength UV detector (Shimadzu Corporation, Japan); C18 pre-column; mobile phase: methanol/water (65/35, v/v); flow rate 1 mL/min; detection wavelength 283 nm; column temperature 40° C.
The blood was collected from the orbital sinus of rats and centrifuged for 10 minutes at 3000 r/min, and the plasma was separated. 200 μL of the plasma was accurately sampled, and placed in 1.5 mL EP tube. 600 μL acetonitrile was added. The tube was vortexed for 3 minutes, and centrifuged for 10 minutes at 16000 r/min. 20 μL supernatant was taken for injection of HPLC determination. Chromatograms and peak area were recorded.
Blank plasma (280 μL) was accurately pipetted, and 20 μL of standard solutions of different concentrations of the drug was added to obtain the biological samples of different concentrations of the drug. The samples were treated and measured according to the aforementioned “Processing of the biological samples”. The chromatogram and the peak area were recorded. Linear regression was made by peak area A v.s concentration C (μg/mL) to obtain the standard working curve of Compound C128 in the biological samples.
Three male rats were used, and administered via tail vein injection at a dose of 10 mg/kg. The blood was taken via the orbital sinus after administration of 5 min, 15 min, 30 min, 1 h, 2 h, 4 h, 6 h, 8 h, 10 h, respectively. The samples were treated and measured according to the aforementioned “Processing of the biological samples”. The chromatogram and the peak area were recorded. The measured amount, namely, the drug concentration in plasma, was calculated by putting the peak area of the drug into the standard working curve equation.
The time curve of the drug in plasma was drawn—the area under the plasma drug concentration-time curve (AUC) was calculated by the Log trapezoidal method.

Where two headings read alike, the source gives them in different places. Some results are limits rather than exact numbers.

Usually IC50 stands for the concentration that inhibits the measured activity by half. A low value points to greater potency. Usually AUC(0-t) stands for the area under the concentration-time curve up to a stated or last time point. Higher therefore signals more exposure. The term Cmax denotes the peak of the concentration-time curve. One may read the Tmax as the time at which the peak concentration occurs. Broadly, the half-life is the time needed for the level to fall by half in the phase considered. A low value points to fast loss. Broadly, the melting point is the temperature of the solid-liquid transition.

Consider `COc1ccc(/C=C\c2cc(OC)c(OC)c(OC)c2)cc1O` [CA4, cis-1-(3,4,5-trimethoxyphenyl)-2-(3′-hydroxy-4′-methoxyphenyl)ethylene, reference compound], for which the IC50 turned out to be 43 nM with HCT-116 (Homo sapiens, HCT-116, 72 h); 5.2 nM with K562 (K562, 72 h); 7.2 nM in the data set on DU-145 (DU-145, 72 h); 5.6 nM in the data set with NCI-H460 (NCI-H460, 72 h); […] in the data set on tubulin; 5.5 nM in the data set on MCF-7 (MCF7, 72 h, MCF-7 cells).
Take `COc1cc(OC)cc(-c2ncoc2-c2ccc(OC)c(O)c2N)c1` [Compound C124, 4-(3,5-dimethoxyphenyl)-5-(2-amino-3-hydroxy-4-methoxyphenyl)oxazole]: the 50% inhibitory concentration (IC50) in the data set on HCT-116 (Homo sapiens, HCT-116, 72 h) is 33 nM; in the data set on K562 (K562, 72 h), 6.4 nM; with DU-145 (DU-145, 72 h), 280 nM; in the data set with NCI-H460 (NCI-H460, 72 h), over 300 nM; in the data set on tubulin, 1040 nM; with MCF-7 (MCF7, 72 h, MCF-7 cells), 4.3 nM.
`COc1cc(OC)cc(-c2ncn(CCO)c2-c2ccc(OC)c(F)c2)c1` [Compound C256, N-hydroxyethyl-4-(3,5-dimethoxyphenyl)-5-(3-fluoro-4-methoxyphenyl)imidazole]: the IC50 was 460 nM with HCT-116 (Homo sapiens, HCT-116, 72 h); 7.6 nM in the data set with K562 (K562, 72 h); 10.3 nM in the data set with DU-145 (DU-145, 72 h); over 300 nM in the data set with NCI-H460 (NCI-H460, 72 h); 1570 nM in the data set on tubulin.
In the case of `COc1cc(OC)cc(-c2nc[nH]c2-c2ccc(OC)c(F)c2)c1` [Compound C128, 4-(3,5-dimethoxyphenyl)-5-(3-fluoro-4-methoxyphenyl)imidazole], the melting point was in the range of 127.1 to 128.9 °C. For the same molecule, in the data set on HCT-116 (Homo sapiens, HCT-116, 72 h), the half-inhibitory concentration (IC50) came to 110 nM. In addition, in data set [1] (SD male rats), the “AUMC0-inf—obs” value is reported as 7.569 μg/ml*h^2 and the “Lambda—z” value came out at 0.833 h⁻¹. In data set [1] (rat, iv, read-out: Vss—obs), the Vd worked out at 1.29 L/kg. Also, in data set [1] (rat, iv, read-out: Vz—obs), the Vd is 1.57 L/kg. Moreover, in data set [1] (rat, iv, SD male rats), the exposure AUC(0-t) was 7280 ng·h/mL, the C0 was 20400 ng/mL, the Cmax amounted to 14200 ng/mL and the Tmax is 4.98 min. This molecule gave a half-life in data set [1] (rat, iv, SD male rats) of 50 min. For the same molecule, the AUC(0-inf) in data set [1] (rat, iv, SD male rats, read-out: AUC0-inf—obs) stood at 7770 ng·h/mL. For the same molecule, in data set [1] (rat, iv, SD male rats, read-out: Cl—obs (converted)), the clearance is 21.7 mL/min/kg. For the same molecule, the MRT inf in data set [1] (rat, iv, SD male rats, read-out: MRT0-inf—obs) is 58.9 min. Further, the IC50 in the data set on K562 (K562, 72 h) was 1.9 nM. The 50% inhibitory concentration (IC50) in the data set with NCI-H460 (NCI-H460, 72 h) turned out to be 92 nM. The molecule also gave an IC50 in the data set with tubulin of 590 nM. 1 nM corresponded to half-maximal inhibition in the data set on MCF-7 (MCF7, 72 h, MCF-7 cells) (IC50).
As to `CNc1ccc(-c2ocnc2-c2cc(OC)cc(OC)c2)cc1F` [Compound C264, 4-(3,5-dimethoxyphenyl)-5-(3-fluoro-4-methylaminophenyl)oxazole], the IC50 with tubulin stood at 860 nM.
In turn, `COc1cc(OC)cc(-c2ncoc2-c2ccc(OC)c(O)c2O)c1` [Compound C116, 4-(3,5-dimethoxyphenyl)-5-(2,3-dihydroxy-4-methoxyphenyl)oxazole] came in with a melting point of 178.6 to 180.4 °C. In the data set with tubulin, this molecule gave a half-inhibitory concentration (IC50) of 530 nM.
In the case of `COc1cc(OC)cc(-c2ncoc2-c2ccc(OC)c(O)c2)c1` [Compound C110, 4-(3,5-dimethoxyphenyl)-5-(3-hydroxy-4-methoxyphenyl)oxazole], the melting point is 149.9 to 151.6 °C. This molecule returned an IC50 in the data set with HCT-116 (Homo sapiens, HCT-116, 72 h) of 71 nM. In addition, the IC50 with K562 (K562, 72 h) amounted to 49 nM. Besides, the half-maximal inhibitory concentration (IC50) in the data set on DU-145 (DU-145, 72 h) came to 2.5 nM. This molecule had a half-maximal inhibitory concentration (IC50) with NCI-H460 (NCI-H460, 72 h) of 33 nM. Also, in the data set on tubulin, the 50% inhibitory concentration (IC50) came to 470 nM. Besides, in the data set on MCF-7 (MCF7, 72 h, MCF-7 cells), inhibition was half-maximal at 210 nM (IC50).
For the molecule `COc1cc(OC)cc(-c2ncoc2-c2ccc(OC)c(N)c2N)c1` [Compound C121, 4-(3,5-dimethoxyphenyl)-5-(2,3-diamino-4-methoxyphenyl)oxazole], the melting point is 132.6 to 134 °C. Moreover, the concentration for half-maximal inhibition (IC50) with tubulin is 2350 nM.
Regarding `COc1cc(OC)cc(-c2nc[nH]c2-c2ccc(OC)c(N)c2)c1` [Compound C129, 4-(3,5-dimethoxyphenyl)-5-(3-amino-4-methoxyphenyl)imidazole], half-maximal inhibition with tubulin (IC50) was put at 660 nM.
For the molecule `COc1cc(OC)cc(-c2nc[nH]c2-c2ccc(OC)c(O)c2)c1` [Compound C118, 4-(3,5-dimethoxyphenyl)-5-(3-hydroxy-4-methoxyphenyl)-imidazole], the IC50 in the data set with HCT-116 (Homo sapiens, HCT-116, 72 h) came to 40.5 nM; in the data set with K562 (K562, 72 h), 2.8 nM; with NCI-H460 (NCI-H460, 72 h), 14.3 nM; in the data set with tubulin it was 490 nM; in the data set with MCF-7 (MCF7, 72 h, MCF-7 cells), 46.3 nM.
As to `COc1ccc(-c2c(-c3cc(OC)c(OC)c(OC)c3)ncn2-c2ccccc2)cc1O` [Compound C087, 5-(3-hydroxy-4-methoxyphenyl)-4-(3,4,5-trimethoxyphenyl)-1-phenylimidazole], the melting point lay in the range of 176 to 177 °C. In addition, it took 77 nM to reach half-maximal inhibition in the data set on HCT-116 (Homo sapiens, 72 hours) (IC50). This molecule yielded an IC50 with K562 (72 hours) of 4.6 nM. In the data set on DU-145 (72 hours), this molecule yielded an IC50 of over 300 nM. Moreover, in the data set with NCI-H460 (72 hours), inhibition was half-maximal at 153 nM (IC50). Besides, inhibition in the data set with MCF-7 (MCF7, MCF-7 cells, 72 hours) was half-maximal at 6.2 nM (IC50).
For the molecule `COc1cc(OC)cc(-c2ncoc2-c2ccc(OC)c(N)c2)c1` [Compound C115, 4-(3,5-dimethoxyphenyl)-5-(3-amino-4-methoxyphenyl)oxazole], the half-maximal inhibitory concentration (IC50) is 335 nM with HCT-116 (Homo sapiens, HCT-116, 72 h); 5.7 nM with K562 (K562, 72 h); over 300 nM in the data set on DU-145 (DU-145, 72 h); 52 nM in the data set on NCI-H460 (NCI-H460, 72 h); 460 nM in the data set with tubulin; 101 nM with MCF-7 (MCF7, 72 h, MCF-7 cells).
In turn, `CNc1ccc(-c2ocnc2-c2cc(OC)cc(OC)c2)cc1O` [Compound C123, 4-(3,5-dimethoxyphenyl)-5-(3-hydroxy-4-methylaminophenyl)oxazole] displayed a melting point of 149.9 to 151.6 °C. Further, the IC50 with HCT-116 (72 hours) was 189 nM. Besides, the 50% inhibitory concentration (IC50) in the data set with HCT-116 (Homo sapiens, HCT-116, 72 h) was over 300 nM. Moreover, in the data set with K562 (K562, 72 h), the IC50 was found to be 7.2 nM. This molecule showed a half-maximal inhibitory concentration (IC50) in the data set on DU-145 (DU-145, 72 h) of over 300 nM. The same molecule gave a half-maximal inhibitory concentration (IC50) with tubulin of 660 nM. In the data set on MCF-7 (MCF7, 72 h, MCF-7 cells), this molecule returned a 50% inhibitory concentration (IC50) of 1.2 nM.
